What all share (test): ≥ marks a high value that may be exact or a test limit, other limits are often not marked, values filed in µg/mL are converted to µM
Experiment [1] deals with Escherichia coli ATCC 25922.
Experiment [2] has as its system Klebsiella pneumoniae ATCC 700603.
In experiment [3] the test system is Pseudomonas aeruginosa ATCC 27853.
The test system of experiment [4] is Staphylococcus aureus ATCC 29213.
Experiment [5] relates to Staphylococcus aureus ATCC 33591.
The test system of experiment [6] is Staphylococcus aureus ATCC 700699.
Experiment [7] concerns Escherichia coli NEB5alpha.
A further experiment deals with Escherichia coli BL21AI.
For experiment [8], the system named is Micrococcus luteus ATCC 10240.
A further experiment concerns Escherichia coli UB1005.
Experiment [9] concerns Pseudomonas aeruginosa PAO1.
Experiment [10] concerns Staphylococcus aureus ATCC 25923.
For experiment [11], the system named is Bacillus subtilis CMCC 63501.
In experiment [12] the test system is Enterococcus faecalis ATCC 29212.
Experiment [13] concerns Salmonella enterica subsp. enterica serovar Pullorum C79-13.
In experiment [14] the test system is Salmonella enterica subsp. enterica serovar Typhimurium ATCC 14028.
Experiment [15] relates to Staphylococcus epidermidis ATCC 12228.
Experiment [16] has as its system Salmonella enterica subsp. enterica serovar Typhimurium C77-31.
The test system of experiment [17] is Bacillus subtilis ATCC 6051.

One may read the MIC as the least concentration at which growth counts as inhibited. Low readings indicate inhibition by little substance, high ones a need for much substance.

Converted amounts (≈) assume the structure as drawn.

Take `CC[C@H](C)[C@H](NC(=O)[C@H](CC(=O)O)NC(=O)[C@H](CCCCN)NC(=O)[C@H](C)NC(=O)[C@H](C)NC(=O)CNC(=O)[C@H](CCCCN)NC(=O)[C@H](CC(C)C)NC(=O)[C@@H](NC(=O)[C@H](CC(=O)O)NC(=O)[C@@H](NC(=O)[C@@H](NC(=O)CN)C(C)C)C(C)C)[C@@H](C)CC)C(=O)N[C@@H](C)C(=O)NCC(=O)N[C@@H](Cc1cnc[nH]1)C(=O)N[C@@H](CC(C)C)C(=O)N[C@@H](C)C(=O)N[C@@H](CO)C(=O)N[C@@H](CCCCN)C(=O)N[C@H](C(=O)N[C@@H](CCSC)C(=O)N[C@@H](C)C(=O)N[C@@H](CCCCN)C(=O)N[C@@H](CC(C)C)C(N)=O)C(C)C` [GVVDILKGAAKDIAGHLASKVMAKL]: the MIC in [1] was 50 µM (≈ 125 µg/mL); in [2] it was 100 µM (≈ 251 µg/mL); in experiment [3], over 100 µM; in [4], over 100 µM; in experiment [5], at least 100 µM; in [6] it was at least 100 µM.
Turning to `CC[C@H](C)[C@H](NC(=O)[C@H](CC(=O)O)NC(=O)[C@H](CCCCN)NC(=O)[C@H](C)NC(=O)[C@H](C)NC(=O)CNC(=O)[C@H](CCCCN)NC(=O)[C@H](CC(C)C)NC(=O)[C@@H](NC(=O)[C@H](CC(=O)O)NC(=O)[C@@H](NC(=O)[C@@H](NC(=O)CN)C(C)C)C(C)C)[C@@H](C)CC)C(=O)N[C@@H](C)C(=O)NCC(=O)N[C@@H](Cc1cnc[nH]1)C(=O)N[C@@H](CC(C)C)C(=O)N[C@@H](C)C(=O)N[C@@H](CO)C(=O)N[C@@H](CCCCN)C(=O)N[C@H](C(=O)N[C@@H](CCSC)C(=O)N[C@@H](CC(N)=O)C(=O)N[C@@H](CCCCN)C(=O)N[C@@H](C)C(N)=O)C(C)C` [GVVDILKGAAKDIAGHLASKVMNKA], the MIC in [1] is over 100 µM; in experiment [2], over 100 µM; in experiment [3] it was over 100 µM; in experiment [4], over 100 µM; in experiment [5] it was at least 100 µM; in experiment [6] it was at least 100 µM.
In turn, `CC(C)C[C@H](NC(=O)[C@H](CCCN=C(N)N)NC(=O)[C@H](CC(C)C)NC(=O)[C@H](CC(C)C)NC(=O)[C@H](CCC(N)=O)NC(=O)[C@H](CCC(=O)O)NC(=O)[C@H](CC(C)C)NC(=O)[C@H](Cc1ccc(O)cc1)NC(=O)CNC(=O)[C@@H](N)CC(C)C)C(=O)O` [LGYLEQLLRL] displayed an MIC in experiment [7] of at least 1360 µM.
On to `CC[C@H](C)[C@H](NC(=O)[C@H](CCCN=C(N)N)NC(=O)[C@H](CCCN=C(N)N)NC(=O)[C@@H]1CCCN1C(=O)[C@@H]1CCCN1C(=O)[C@H](CCCN=C(N)N)NC(=O)[C@@H]1CCCN1C(=O)[C@H](CCCN=C(N)N)NC(=O)[C@@H]1CCCN1C(=O)[C@H](CC(C)C)NC(=O)[C@H](Cc1ccc(O)cc1)NC(=O)[C@@H]1CCCN1C(=O)[C@@H]1CCCN1C(=O)[C@H](CCCCN)NC(=O)[C@H](CC(=O)O)NC(=O)[C@@H](N)C(C)C)C(=O)N[C@@H](Cc1ccc(O)cc1)C(=O)N[C@@H](CC(N)=O)C(=O)N[C@@H](CC(N)=O)C(=O)N[C@@H](CCCN=C(N)N)C(N)=O` [VDKPPYLPRPRPPRRIYNNR], for which the minimal inhibitory concentration (MIC) (in the experiment with Escherichia coli BL21AI; in [8]) was 3.19 µM (≈ 8 µg/mL) each time.
Take `CC[C@H](C)[C@H](NC(=O)[C@H](CCCN=C(N)N)NC(=O)[C@H](CCCN=C(N)N)NC(=O)[C@@H]1CCCN1C(=O)[C@@H]1CCCN1C(=O)[C@H](CCCN=C(N)N)NC(=O)[C@@H]1CCCN1C(=O)[C@H](CCCN=C(N)N)NC(=O)[C@@H]1CCCN1C(=O)[C@H](CC(C)C)NC(=O)[C@H](Cc1ccc(O)cc1)NC(=O)[C@@H]1CCCN1C(=O)[C@@H]1CCCN1C(=O)[C@H](CCCCN)NC(=O)[C@H](CC(=O)O)NC(=O)[C@@H](N)C(C)C)C(=O)N[C@@H](Cc1ccc(O)cc1)C(=O)N[C@@H](CC(N)=O)C(=O)N[C@@H](Cc1cnc[nH]1)C(N)=O` [VDKPPYLPRPRPPRRIYNH]: the MIC with Escherichia coli BL21AI amounted to 6.75 µM (≈ 16 µg/mL); against Escherichia coli UB1005, 2.11 µM (≈ 5 µg/mL); in experiment [8], 6.75 µM (≈ 16 µg/mL); in [9] it was 54 µM (≈ 128 µg/mL); in experiment [10] it was 38.2 µM (≈ 90.5 µg/mL).
`CC(C)[C@H](NC(=O)[C@H](CCCCN)NC(=O)[C@H](C)NC(=O)[C@H](C)NC(=O)[C@H](C)NC(=O)[C@H](CCCCN)NC(=O)[C@H](C)NC(=O)[C@H](C)NC(=O)[C@H](C)NC(=O)[C@H](CCCCN)NC(=O)[C@@H](NC(=O)[C@@H](N)Cc1c[nH]c2ccccc12)C(C)C)C(=O)N[C@@H](Cc1c[nH]c2ccccc12)C(N)=O` [WVKAAAKAAAKVW]: the MIC in experiment [11] is at least 128 µM; in experiment [12] it was 64 µM (≈ 89.5 µg/mL); in [1], 32 µM (≈ 44.8 µg/mL); in the experiment with Escherichia coli UB1005 it was at least 128 µM; in experiment [3] it was over 128 µM; in experiment [13], at least 64 µM. The MIC in experiment [14], in experiment [4] and in [15] was over 128 µM throughout.
`CC[C@H](C)[C@H](N)C(=O)N[C@@H](CCCN=C(N)N)C(=O)N[C@@H](CS)C(=O)N[C@@H](CCCN=C(N)N)C(=O)N[C@@H](CCCN=C(N)N)C(=O)N[C@@H](CCCN=C(N)N)C(=O)N[C@@H](Cc1ccccc1)C(=O)N[C@@H](CS)C(=O)N[C@@H](CCCN=C(N)N)C(=O)N[C@H](C(N)=O)[C@@H](C)CC` [IRCRRRFCRI]: the minimal inhibitory concentration (MIC) is 4 µM (≈ 5.51 µg/mL) in experiment [11]; 64 µM (≈ 88.2 µg/mL) in experiment [12]; 8 µM (≈ 11 µg/mL) in experiment [1]; 64 µM (≈ 88.2 µg/mL) in experiment [3]; 16 µM (≈ 22 µg/mL) in experiment [13]; at least 128 µM in experiment [16]. Also, the minimum inhibitory concentration (MIC) in experiment [4] and in [15] was 64 µM (≈ 88.2 µg/mL) throughout.
`CC(C)C[C@H](NC(=O)[C@H](CCCN=C(N)N)NC(=O)[C@@H]1CCCN1C(=O)[C@H](Cc1cnc[nH]1)NC(=O)[C@@H]1CCCN1C(=O)[C@@H](NC(=O)[C@@H]1CCCN1C(=O)[C@H](CCCN=C(N)N)NC(=O)[C@@H]1CCCN1C(=O)[C@H](CO)NC(=O)[C@H](Cc1ccc(O)cc1)NC(=O)[C@@H]1CCCN1C(=O)[C@H](CCCN=C(N)N)NC(=O)[C@@H]1CCCN1C(=O)[C@H](CCCCN)NC(=O)CN)[C@@H](C)O)C(N)=O` [GKPRPYSPRPTPHPRL]: the MIC in the experiment on Escherichia coli BL21AI was found to be 8.62 µM (≈ 16 µg/mL); in [8], 2.15 µM (≈ 4 µg/mL).
Take `NC(=O)[C@H](Cc1c[nH]c2ccccc12)NC(=O)[C@H](CCCN=C(N)N)NC(=O)[C@H](Cc1c[nH]c2ccccc12)NC(=O)[C@H](CCCN=C(N)N)NC(=O)[C@H](CS)NC(=O)[C@H](Cc1ccccc1)NC(=O)[C@H](CCCN=C(N)N)NC(=O)[C@H](CCCN=C(N)N)NC(=O)[C@H](CCCN=C(N)N)NC(=O)[C@H](CS)NC(=O)[C@H](CCCN=C(N)N)NC(=O)[C@H](Cc1c[nH]c2ccccc12)NC(=O)[C@H](CCCN=C(N)N)NC(=O)[C@@H](N)Cc1c[nH]c2ccccc12` [WRWRCRRRFCRWRW]: the MIC is 1 µM (≈ 2.21 µg/mL) in experiment [11]; 2 µM (≈ 4.42 µg/mL) in [12]; 4 µM (≈ 8.83 µg/mL) in [1]; 8 µM (≈ 17.7 µg/mL) in [3]; 2 µM (≈ 4.42 µg/mL) in experiment [13]; 4 µM (≈ 8.83 µg/mL) in [16]. Further, the MIC in experiment [4] turned out to be 4 µM (≈ 8.83 µg/mL); in experiment [15], 2 µM (≈ 4.42 µg/mL).
With `CC[C@H](C)[C@H](NC(=O)[C@H](CC(=O)O)NC(=O)[C@H](CCCCN)NC(=O)[C@H](C)NC(=O)[C@H](C)NC(=O)CNC(=O)[C@H](CCCCN)NC(=O)[C@H](CC(C)C)NC(=O)[C@@H](NC(=O)[C@H](CC(=O)O)NC(=O)[C@@H](NC(=O)[C@@H](NC(=O)CN)C(C)C)C(C)C)[C@@H](C)CC)C(=O)N[C@@H](C)C(=O)NCC(=O)N[C@@H](Cc1cnc[nH]1)C(=O)N[C@@H](CC(C)C)C(=O)N[C@@H](CC(C)C)C(=O)N[C@@H](CO)C(=O)N[C@@H](CCCCN)C(=O)N[C@H](C(=O)N[C@@H](CCSC)C(=O)N[C@@H](CC(N)=O)C(=O)N[C@@H](CCCCN)C(=O)N[C@@H](CC(C)C)C(N)=O)C(C)C` [GVVDILKGAAKDIAGHLLSKVMNKL], the MIC is 12.5 µM (≈ 32.4 µg/mL) in experiment [1]; 50 µM (≈ 130 µg/mL) in experiment [2]; 100 µM (≈ 259 µg/mL) in experiment [3]; 100 µM (≈ 259 µg/mL) in experiment [4]; 25 µM (≈ 64.8 µg/mL) in [5]; at least 100 µM in [6].
Turning to `CC[C@H](C)[C@H](NC(=O)[C@H](C)NC(=O)CNC(=O)[C@H](CCCCN)NC(=O)[C@H](CCC(=O)O)NC(=O)[C@H](CCC(=O)O)NC(=O)[C@H](CC(=O)O)NC(=O)[C@H](CCC(=O)O)NC(=O)[C@H](CC(=O)O)NC(=O)[C@H](CCCN=C(N)N)NC(=O)CNC(=O)[C@H](CCC(N)=O)NC(=O)[C@H](CC(C)C)NC(=O)[C@@H](N)CCCCN)C(=O)N[C@H](C(=O)N[C@@H](CCCCN)C(=O)N[C@H](C(=O)N[C@@H](CCCCN)C(=O)NCC(=O)NCC(=O)N[C@@H](CC(C)C)C(=O)O)C(C)C)C(C)C` [KLQGRDEDEEKGAIVKVKGGL], the MIC in [17] is at least 1000 µM; in experiment [7] it was at least 500 µM.

Values taken from DBAASP.
